Measurements: ChEMBL document CHEMBL1142962, “Antiproliferative prenylated stilbenes and flavonoids from Macaranga alnifolia from the Madagascar rainforest” (J Nat Prod, 2007)

Tested on: A2780 (human ovarian cancer)
Assay: Antiproliferative activity against drug-sensitive human A2780 cells

COc1cc(/C=C/c2cc(O)c(CC=C(C)C)c(O)c2)cc2c1O[C@]1(C)CC[C@@H](O)C(C)(C)[C@H]1C2 [SCHWEINFURTHIN F]
IC50: 5 µM
